According to patent publication US20200107546A1, “METHODS AND COMPOSITIONS FOR CONTROLLING UNDESIRED VEGETATION SUCH AS INVASIVE ANNUAL GRASSES” (priority 2018, published 2020):

Tests used:
[1] = Soil half-life of herbicides
Description: As used herein, “short-residual” denotes an herbicide having a median soil half-life of no greater than 50 days, such as less than 40 days or less than 30 days.
Imazamox is a short-residual imidazolinone herbicide having a soil half-life of about 20-30 days. Additionally, imazamethabenz methyl is a short-residual imidazolinone herbicide having a soil half-life of about 25-36 days.

[2] = test system: Bromus tectorum (cheatgrass); assay: Example 3 pre-emergence field application, control and biomass of Bromus tectorum; type: in vivo; conditions: for % Control Bromus tectorum / Biomass (kg/ha) Bromus tectorum: first year after treatment, 0.25% NIS
Procedure: (§1) In the following Examples, desirable perennial grasses were treated to control the invasive annual grass Bromus tectorum (cheatgrass) either pre-emergence or post-emergence with either indaziflam, imazapic, imazamox, glyphosate, or combinations thereof. Imazapic, glyphosate, and combinations comprising either imazapic and/or glyphosate were used for purposes of comparison.
(§2) Table 3 summarizes the herbicidal efficacies (% Control) and damage caused to desired perennial grasses (% Injury) during the first year after the active ingredients of Table 1 were applied to perennial grasses of species Hesperostipa comata (needle-and-thread), Aristida purpurea (purple three-awn) and Bouteloua gracilis (blue grama). Table 4 further sets forth the biomass in kilograms per hectare (kg/ha) of Bromus tectorum and perennial grass measured in the first year after treatment.
(§3) All treatments include 0.25% NIS.
(§4) Imazapic, indaziflam, and a combination of indaziflam and imazamox were applied via a backpack research sprayer to desirable perennial grasses to control unwanted Bromus tectorum pre-emergence.

[3] = test system: Bromus tectorum (cheatgrass); assay: Example 2 post-emergence field application, control of Bromus tectorum; type: in vivo; conditions: Plateau 7 oz/A, Esplanade 200SC 7 oz/A, Raptor 6 oz/A, 0.25% NIS
Procedure: as §1
(§5) Table 3 summarizes the herbicidal efficacies (% Control), damage caused to desired perennial grasses (% Injury), and cover (% Cover) when the active ingredients of Table 1 were applied to perennial grasses of species Bromus inermis (smooth brome) and Agropyron smithii (western wheatgrass).
as §3
(§6) Imazapic, indaziflam, imazamox, and a combination of indaziflam and imazamox were applied via a backpack research sprayer to perennial grasses to control Bromus tectorum post-emergence.

[4] = test system: perennial grasses Hesperostipa comata (needle-and-thread), Aristida purpurea (purple three-awn) and Bouteloua gracilis (blue grama); assay: Example 3 pre-emergence field application, injury and biomass of desirable perennial grasses; type: in vivo
Procedure: as §1, §2, §3, §4

[5] = test system: perennial grasses Bromus inermis (smooth brome) and Agropyron smithii (western wheatgrass); assay: Example 2 post-emergence field application, injury and cover of desirable perennial grasses; type: in vivo
Procedure: as §1, §5, §3, §6

[6] = Plateau 7 oz/A, Esplanade 200SC 7 oz/A, Raptor 6 oz/A
[7] = in vivo, 1 year after treatment
[8] = pre-emergence, first year after treatment, Plateau 7 oz/A, Esplanade 200SC 7 oz/A, Raptor 6 oz/A, 0.25% NIS
[9] = Year 2 after treatment, post-emergence, Plateau 7 oz/A, Esplanade 200SC 7 oz/A, Raptor 6 oz/A, 0.25% NIS
[10] = Year 1 after treatment, post-emergence, Plateau 7 oz/A, Esplanade 200SC 7 oz/A, Raptor 6 oz/A, 0.25% NIS
[11] = pre-emergence, first year after treatment, Esplanade 200SC 3.5 oz/A, 0.25% NIS
[12] = pre-emergence, first year after treatment, Esplanade 200SC 5 oz/A, 0.25% NIS

In the case of `Cc1cnc(C2=NC(=O)C(C)(C(C)C)N2)c(C(=O)O)c1` (stereo not drawn) [Imazapic], the Median soil half-life [1] is reported as 120 days, the “% Control Bromus tectorum” value [2, 6] is reported as 90% and the “Biomass (kg/ha) Bromus tectorum” value [2, 6] is reported as 7 kg/ha. The “% Control Bromus tectorum” value ([3]; Year 1 after treatment) was 97%, the “% Control Bromus tectorum” value ([3]; Year 2 after treatment) was 77% and the “% Injury Perennial grasses” value [4, 7] was 10%. For the same molecule, the “Biomass (kg/ha) Perennial grasses” value [4, 8] was 91 kg/ha, the “% Cover Perennial grasses” value [5, 9] was 72% and the “% Injury Perennial grasses” value [5, 7] was 15%. The “% Injury Perennial grasses” value ([5]; in vivo, 2 year after treatment) was 1%.
In the case of `COCc1cnc(C2=NC(C)(C(C)C)C(=O)N2)c(C(=O)O)c1` (racemic) [Imazamox, 2-[(RS)-4-isopropyl-4-methyl-5-oxo-2-imidazolin-2-yl]-5-methoxymethylnicotinic acid], the “% Control Bromus tectorum” value ([3]; Year 1 after treatment) is reported as 98%, the “% Control Bromus tectorum” value ([3]; Year 2 after treatment) is reported as 20% and the “% Injury Perennial grasses” value [5, 10] is reported as 0%. The “% Cover Perennial grasses” value [5, 9] was 63% and the “% Injury Perennial grasses” value [5, 9] was 0%.
With `Cc1ccc2c(c1)[C@H](Nc1nc(N)nc(C(C)F)n1)[C@@H](C)C2` (mixture of isomers) [Indaziflam, N2-[(1R,2S)-2,3-dihydro-2,6-dimethyl-1H-inden-1-yl]-6-[(1RS)-1-fluoroethyl]-1,3,5-triazine-2,4-diamine] the “% Control Bromus tectorum” value ([2]; Esplanade 200SC 3.5 oz/A) was 72%, the “Biomass (kg/ha) Bromus tectorum” value ([2]; Esplanade 200SC 3.5 oz/A) was 83 kg/ha and the “% Control Bromus tectorum” value ([2]; Esplanade 200SC 5 oz/A) was 82%. For the same molecule, the “Biomass (kg/ha) Bromus tectorum” value ([2]; Esplanade 200SC 5 oz/A) was 18 kg/ha, the “% Control Bromus tectorum” value [2, 6] was 80% and the “Biomass (kg/ha) Bromus tectorum” value [2, 6] was 32 kg/ha. For the same molecule, the “control of invasive Bromus tectorum” value ([2]; indaziflam alone, span over the rates 3.5, 5 and 7 oz/A) was 72-82%, the “% Control Bromus tectorum” value ([3]; Year 1 after treatment) was 37% and the “% Control Bromus tectorum” value ([3]; Year 2 after treatment) was 93%. For the same molecule, the “% Injury Perennial grasses” value [4, 11] was 10%, the “Biomass (kg/ha) Perennial grasses” value [4, 11] was 54 kg/ha and the “% Injury Perennial grasses” value [4, 12] was 0%. For the same molecule, the “Biomass (kg/ha) Perennial grasses” value [4, 12] was 63 kg/ha, the “% Injury Perennial grasses” value [4, 8] was 5% and the “Biomass (kg/ha) Perennial grasses” value [4, 8] was 75 kg/ha. For the same molecule, the Perennial grass biomass ([4]; pre-emergence, indaziflam alone, span over the rates 3.5, 5 and 7 oz/A) was 54-75 kg/ha, the “% Injury Perennial grasses” value [5, 10] was 0% and the “% Cover Perennial grasses” value [5, 9] was 72%. The “% Injury Perennial grasses” value [5, 9] was 0%.
For `CCc1cnc(C2=NC(C)(C(C)C)C(=O)N2)c(C(=O)O)c1` (stereo not drawn) [Imazethapyr], the Median soil half-life [1] was 75 days.
For `CC(C)C1(C)N=C(c2ncccc2C(=O)O)NC1=O` (stereo not drawn) [Imazapyr], the Median soil half-life [1] was 83 days.
